Assay results: ChEMBL document CHEMBL1201862, “PubChem BioAssay data set” (2004)
Counter-ions that a name gives are not always drawn.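 How tested: cells in 96-well plates exposed to compound for 48 hours at five concentrations. GI50 = concentration required for 50% inhibition of growth.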 Activity calls are given as the source filed them. No stated cut-off is given here; in the data, active = GI50 up to about 1.1 µM and inactive = higher.

Key:
Test in all cases: inhibition of tumour cell growth, NCI panel, 48 h
SF-268 = test system: SF-268
RPMI-8226 = test system: RPMI-8226
U-251 = test system: U-251
CCRF-CEM = test system: CCRF-CEM
SF-295 = test system: SF-295
KM-20L2 = test system: KM-20L2
EKVX = test system: EKVX
LXFL 529 = test system: LXFL 529
SNB-78 = test system: SNB-78
UACC-257 = test system: UACC-257
NCI-H460 = test system: NCI-H460
M19-MEL = test system: M19-MEL
SK-MEL-2 = test system: SK-MEL-2
SW-620 = test system: SW-620
A498 = test system: A498
SF-539 = test system: SF-539
OVCAR-5 = test system: OVCAR-5
IGROV-1 = test system: IGROV-1
LOX IMVI = test system: LOX IMVI
DMS-273 = test system: DMS-273
DLD-1 = test system: DLD-1
UO-31 = test system: UO-31
HCC 2998 = test system: HCC 2998
ACHN = test system: ACHN
K562 = test system: K562
HT-29 = test system: HT-29
RXF 393 = test system: RXF 393
DMS-114 = test system: DMS-114
SNB-75 = test system: SNB-75
OVCAR-8 = test system: OVCAR-8
SK-MEL-28 = test system: SK-MEL-28
COLO 205 = test system: COLO 205
HOP-18 = test system: HOP-18
MOLT-4 = test system: MOLT-4
HL-60 = test system: HL-60
HOP-62 = test system: HOP-62
HOP-92 = test system: HOP-92
A549 = test system: A549
HCT-116 = test system: HCT-116
KM12 = test system: KM12
OVCAR-3 = test system: OVCAR-3
NCI-H23 = test system: NCI-H23
TK-10 = test system: TK-10
Malme-3M = test system: Malme-3M
786-0 = test system: 786-0
SK-OV-3 = test system: SK-OV-3
XF498 = test system: XF498
NCI-H522 = test system: NCI-H522
OVCAR-4 = test system: OVCAR-4
CAKI-1 = test system: CAKI-1
HCT-15 = test system: HCT-15
UACC-62 = test system: UACC-62
NCI-H226 = test system: NCI-H226
SK-MEL-5 = test system: SK-MEL-5
SN12C = test system: SN12C
SNB-19 = test system: SNB-19
SR = test system: SR
M14 = test system: M14

Measured: GI50

O=C1/C(=C/c2ccccc2Cl)COc2ccc(Br)cc21
inactive: SF-268 > 100 µM | RPMI-8226 2.1 µM | U-251 40.6 µM | CCRF-CEM 4.49 µM | SF-295 37.6 µM | KM-20L2 > 100 µM | EKVX > 100 µM | LXFL 529 63 µM | SNB-78 43.1 µM | UACC-257 > 100 µM | NCI-H460 > 100 µM | M19-MEL > 100 µM | SK-MEL-2 82.8 µM | SW-620 23.8 µM | A498 > 100 µM | SF-539 52.8 µM | OVCAR-5 > 100 µM | IGROV-1 > 100 µM | LOX IMVI > 100 µM | DMS-273 32.3 µM | DLD-1 65.9 µM | UO-31 55.7 µM | HCC 2998 > 100 µM | ACHN > 100 µM | K562 3.82 µM | HT-29 > 100 µM | RXF 393 39 µM | DMS-114 38.3 µM | SNB-75 30.4 µM | OVCAR-8 56.9 µM | SK-MEL-28 > 100 µM | COLO 205 73.8 µM | HOP-18 54.1 µM | MOLT-4 18 µM | HL-60 18.5 µM | HOP-62 92.7 µM | HOP-92 46.3 µM | A549 97.3 µM | HCT-116 25.1 µM | KM12 22.4 µM | OVCAR-3 37.3 µM | NCI-H23 > 100 µM | TK-10 > 100 µM | Malme-3M > 100 µM | 786-0 37.4 µM | SK-OV-3 27 µM | XF498 27.2 µM | NCI-H522 20.6 µM

O=C1OC(c2ccc(Cl)cc2)(c2ccc(Cl)cc2)c2c1ccc1ccccc21
> 100 µM: HCT-15
inactive: SF-268 > 100 µM | RPMI-8226 5.94 µM | OVCAR-4 > 100 µM | CAKI-1 > 100 µM | U-251 > 100 µM | CCRF-CEM > 100 µM | UACC-62 > 100 µM | SF-295 > 100 µM | KM-20L2 > 100 µM | EKVX > 100 µM | LXFL 529 > 100 µM | SNB-78 > 100 µM | UACC-257 > 100 µM | NCI-H226 71.4 µM | NCI-H460 > 100 µM | M19-MEL > 100 µM | SK-MEL-2 > 100 µM | SW-620 > 100 µM | A498 > 100 µM | OVCAR-5 > 100 µM | IGROV-1 > 100 µM | LOX IMVI > 100 µM | DMS-273 > 100 µM | DLD-1 > 100 µM | UO-31 92.3 µM | HCC 2998 > 100 µM | ACHN > 100 µM | K562 54.5 µM | SK-MEL-5 52.5 µM | HT-29 > 100 µM | RXF 393 20.9 µM | SNB-75 36.7 µM | OVCAR-8 > 100 µM | SK-MEL-28 > 100 µM | COLO 205 > 100 µM | HOP-18 > 100 µM | MOLT-4 39.4 µM | HL-60 8.69 µM | SN12C > 100 µM | A549 > 100 µM | KM12 > 100 µM | SNB-19 > 100 µM | OVCAR-3 > 100 µM | NCI-H23 8.67 µM | TK-10 > 100 µM | Malme-3M > 100 µM | SK-OV-3 > 100 µM | XF498 > 100 µM | NCI-H522 44.4 µM

CC12C=C[C@]3(CC[C@@H]4[C@@](C)(CO)CCC[C@]4(C)C3CC1)C2 (some centres not stated)
active: KM-20L2 0.382 µM
17 µM: HCT-15
inactive: SF-268 17.9 µM | RPMI-8226 17.9 µM | SR 16 µM | OVCAR-4 13.6 µM | CAKI-1 12.8 µM | U-251 16.6 µM | CCRF-CEM 19.9 µM | UACC-62 15.8 µM | SF-295 19.5 µM | EKVX 24.8 µM | LXFL 529 16.9 µM | SNB-78 18.6 µM | M14 15.7 µM | UACC-257 18.5 µM | NCI-H460 21 µM | M19-MEL 19.2 µM | SK-MEL-2 17.3 µM | SW-620 17.6 µM | A498 22.9 µM | SF-539 16.4 µM | OVCAR-5 6.01 µM | IGROV-1 17.5 µM | LOX IMVI 15.6 µM | DMS-273 16.1 µM | DLD-1 > 10 µM | UO-31 17.8 µM | HCC 2998 > 10 µM | ACHN 18.1 µM | K562 17.5 µM | HT-29 17.8 µM | RXF 393 13.7 µM | DMS-114 15.5 µM | SNB-75 > 10 µM | OVCAR-8 21.4 µM | SK-MEL-28 19.2 µM | COLO 205 16.4 µM | MOLT-4 23.6 µM | HL-60 17.9 µM | SN12C 18.2 µM | HOP-62 14.6 µM | HOP-92 > 47.3 µM | A549 18.2 µM | HCT-116 17.9 µM | KM12 > 44.9 µM | SNB-19 19.6 µM | OVCAR-3 18.2 µM | NCI-H23 18 µM | TK-10 20.1 µM | Malme-3M 20.5 µM | 786-0 16 µM | SK-OV-3 18.7 µM | XF498 19.6 µM | NCI-H522 11.5 µM

COc1ccc2cc3[n+](cc2c1OC)CCc1cc2c(cc1-3)OCO2 [BERBERINE SULFATE]
inactive: SF-268 6.15 µM | CCRF-CEM 10.5 µM | UACC-62 17.8 µM | KM-20L2 30.8 µM | LXFL 529 4.37 µM | SNB-78 34.4 µM | M14 32.5 µM | NCI-H460 17.9 µM | M19-MEL 7.6 µM | SK-MEL-2 15.5 µM | SW-620 30.1 µM | A498 > 100 µM | SF-539 33.8 µM | OVCAR-5 > 91.8 µM | IGROV-1 36 µM | LOX IMVI 43.1 µM | DMS-273 17.2 µM | K562 14.1 µM | SK-MEL-5 5.07 µM | HT-29 32.6 µM | DMS-114 4.33 µM | SNB-75 27.5 µM | OVCAR-8 18.1 µM | SK-MEL-28 19.3 µM | HL-60 14 µM | HOP-92 23.6 µM | KM12 4.88 µM | SNB-19 8.13 µM | NCI-H23 8.34 µM | TK-10 > 100 µM | Malme-3M 9.62 µM | 786-0 51.5 µM | SK-OV-3 > 80.9 µM | XF498 14 µM
